From patent publication US20240025862A1, “SUBSTITUTED N-PHENYLURACILS AND SALTS THEREOF, AND USE THEREOF AS HERBICIDAL ACTIVE SUBSTANCES” (Bayer Aktiengesellschaft, priority 2020, published 2024)

Tests used:
Format in all cases: in vivo
Oryza sativa (ORYSA) = assay: Post-emergence crop plant compatibility, greenhouse pot test (also comparative test C); conditions: vs untreated controls
Method in brief: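 Visual damage versus untreated plants (0% = like control, 100% = plants died) was scored about 3 weeks after a post-emergence spray in greenhouse pots. Treatment: one-leaf stage, WP or EC in water at 600 l/ha with 0.5% additive; a/b/c mark different dosages on the same crop.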

Avena fatua (AVEFA) = assay: Post-emergence herbicidal action, greenhouse pot test; conditions: Avena fatua, 504 h, 20 g/ha, rated visually after about 3 weeks vs untreated controls, 100% = plants have died, read-out: Post-emergence action at 20 g/ha against AVEFA in %
Method in brief: (§1)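 Activity was scored by eye about 3 weeks after treatment against untreated plants, where 100% means dead plants and 0% means no difference. Plants at the one-leaf stage received a foliar spray of WP or EC formulations in water plus 0.5% additive (600 l/ha, up to 20 g/ha). Plants were grown in sandy loam pots in a greenhouse for 2–3 weeks before spraying.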

[1] = tested on: Amaranthus retroflexus (AMARE); assay: as above; conditions: Amaranthus retroflexus, 504 h, rated visually after about 3 weeks vs untreated controls, 100% = plants have died
Method in brief: as §1

[2] = tested on: Abutilon theophrasti (ABUTH); assay: as above; conditions: Abutilon theophrasti, 504 h, rated visually after about 3 weeks vs untreated controls, 100% = plants have died
Method in brief: as §1

Veronica persica (VERPE) = assay: as above; conditions: Veronica persica, 504 h, read-out: Post-emergence action against VERPE
Method in brief: as §1

Viola tricolor (VIOTR) = assay: as above; conditions: Viola tricolor, 504 h, read-out: Post-emergence action against VIOTR
Method in brief: as §1

[3] = tested on: Pharbitis purpurea (PHBPU); assay: as above; conditions: Ipomoea purpurea, 504 h, read-out: Post-emergence action against PHBPU in %
Method in brief: as §1

[4] = tested on: Polygonum convolvulus (POLCO); assay: as above; conditions: Fallopia convolvulus, 504 h, read-out: Post-emergence action against POLCO in %
Method in brief: as §1

Setaria viridis (SETVI) = assay: Post-emergence herbicidal action, greenhouse pot test (also comparative test C); conditions: Setaria viridis, 504 h
Method in brief: (§2)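 Greenhouse pot plants in sandy loam were sprayed post-emergence at the one-leaf stage (2–3 weeks after sowing) with WP or EC formulations plus 0.5% additive at 600 l/ha water. Activity was rated visually after about 3 weeks versus untreated controls (100% = dead, 0% = like control); rates were 20 g/ha or less, and 5 g/ha or less in the comparative test.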

[5] = tested on: Echinochloa crus-galli (ECHCG); assay: as above; conditions: Echinochloa crus-galli, 504 h, read-out: Post-emergence action against ECHCG in %
Method in brief: as §2

[6] = tested on: Matricaria inodora (MATIN); assay: as above; conditions: Tripleurospermum inodorum, 504 h, read-out: Post-emergence action against MATIN in %
Method in brief: as §2

[7] = tested on: Alopecurus myosuroides (ALOMY); assay: as above; conditions: Alopecurus myosuroides, 504 h, rated visually after about 3 weeks vs untreated controls, 100% = plants have died
Method in brief: as §2

[8] = tested on: Triticum aestivum (TRZAS); assay: Post-emergence crop plant compatibility, greenhouse pot test; conditions: vs untreated controls
Method in brief: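 Compatibility was scored as visual % effect against untreated controls about 3 weeks after spraying green plant parts at the one-leaf stage. Formulations (WP/EC) were applied in aqueous form with 0.5% additive, 600 l/ha, to greenhouse-grown pot plants.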

Post-emergence action against ORYSA (crop plant compatibility) (Oryza sativa (ORYSA); 1.25 g/ha): 0%
Post-emergence action against ORYSA (crop plant compatibility) (Oryza sativa (ORYSA); 5 g/ha): 20%
Post-emergence action against TRZAS (crop plant compatibility) ([8]; 1.25 g/ha): 0%
Post-emergence action against TRZAS (crop plant compatibility) ([8]; 5 g/ha): 20%
SMILES: Cn1c(C(F)(F)F)cc(=O)n(-c2cc(Oc3ccccc3OCC(=O)OCC#N)c(Br)cc2F)c1=O [I.8-176, Cyanomethyl (2-{2-bromo-4-fluoro-5-[3-methyl-2,6-dioxo-4-(trifluoromethyl)-3,6-dihydropyrimidin-1(2H)-yl]phenoxy}phenoxy)acetate]
pest or weed control at 20 g/ha (Avena fatua (AVEFA)): 80%
pest or weed control at 1.25 g/ha ([1]; 1.25 g/ha, read-out: Post-emergence action at 1.25 g/ha against AMARE in %): 100%
pest or weed control at 5 g/ha ([1]; 5 g/ha, read-out: Post-emergence action at 5 g/ha against AMARE in %): 100%
pest or weed control at 20 g/ha ([1]; 20 g/ha, read-out: Post-emergence action at 20 g/ha against AMARE in %): 100%
pest or weed control at 1.25 g/ha ([2]; 1.25 g/ha, read-out: Post-emergence action at 1.25 g/ha against ABUTH in %): 100%
pest or weed control at 5 g/ha ([2]; 5 g/ha, read-out: Post-emergence action at 5 g/ha against ABUTH in %): 100%
pest or weed control at 20 g/ha ([2]; 20 g/ha, read-out: Post-emergence action at 20 g/ha against ABUTH in %): 100%
pest or weed control at 1.25 g/ha (Veronica persica (VERPE); 1.25 g/ha): 100%
pest or weed control at 5 g/ha (Veronica persica (VERPE); 5 g/ha): 100%
pest or weed control at 20 g/ha (Veronica persica (VERPE); 20 g/ha): 100%
pest or weed control at 1.25 g/ha (Viola tricolor (VIOTR); 1.25 g/ha): 90%
pest or weed control at 5 g/ha (Viola tricolor (VIOTR); 5 g/ha): 100%
pest or weed control at 20 g/ha (Viola tricolor (VIOTR); 20 g/ha): 100%
pest or weed control at 1.25 g/ha ([3]; dosage 1.25 g/ha): 80%
pest or weed control at 5 g/ha ([3]; dosage 5 g/ha): 80%
pest or weed control at 20 g/ha ([3]; dosage 20 g/ha): 100%
pest or weed control at 5 g/ha ([4]; dosage 5 g/ha): 80%
pest or weed control at 20 g/ha ([4]; dosage 20 g/ha): 100%
pest or weed control at 20 g/ha (Setaria viridis (SETVI); 20 g/ha, read-out: Post-emergence action against SETVI): 100%
pest or weed control at 1.25 g/ha (Setaria viridis (SETVI); dosage 1.25 g/ha, read-out: Post-emergence action against SETVI in %): 100%
pest or weed control at 5 g/ha (Setaria viridis (SETVI); dosage 5 g/ha, read-out: Post-emergence action against SETVI in %): 100%
pest or weed control at 5 g/ha ([5]; dosage 5 g/ha): 100%
pest or weed control at 20 g/ha ([5]; dosage 20 g/ha): 100%
pest or weed control at 5 g/ha ([6]; dosage 5 g/ha): 100%
pest or weed control at 20 g/ha ([6]; dosage 20 g/ha): 100%
pest or weed control at 5 g/ha ([7]; 5 g/ha, read-out: Post-emergence action at 5 g/ha against ALOMY in %): 80%
pest or weed control at 20 g/ha ([7]; 20 g/ha, read-out: Post-emergence action at 20 g/ha against ALOMY in %): 100%
